# Source: patent publication US8883841B2, “Oncogenic ras-specific cytotoxic compound and methods of use thereof” (The Board of Regents of the University of Texas System, priority 2005, dated 2014)
# Tests used:
# [1] = tested on: HCC-2998; experiment: NCI in-vitro testing, HCC-2998 (Colon Cancer)
# [2] = tested on: UO-31; experiment: NCI in-vitro testing, UO-31 (Renal Cancer)
# [3] = tested on: M14; experiment: NCI in-vitro testing, M14 (Melanoma)
# [4] = tested on: H460 tumors; experiment: In vivo antitumor activity, subcutaneous H460 tumors in nude mice; details: for suppression of growth of tumor volume in comparison with solvent / mean survival: 100 mg/kg/injection daily i.p.; for suppression of growth of tumor volume in comparison with solvent: Oncrasin-1 10 days, Oncrasin-27 3 days; for mean survival: solvent 24 days; for mean tumor volume vs solvent-treated mice: p<0.05, 5 mice per group
# Description: The inventors have investigated the in vivo antitumor activity of Oncrasin compounds, such as Oncrasin-1 and Oncrasin-27, both are available at relatively larger scale. Subcutaneous tumors were established in 4- to 6-week-old female nude mice (Charles River Laboratories Inc., Wilmington, Mass.) by the inoculation of 1.5×10^6 H460 cells into the dorsal flank of each mouse. After the tumors grew to 5 mm in diameter, mice were treated with intraperitoneal injections of Oncrasin-1 (for 10 days) or Oncrasin-27 (for 3 days, because of limited availability of the compound) at a dose of 100 mg/kg/injection daily (the agents were dissolved in 0.5 mL of solvent containing 10% DMSO, 10% Cremophor EL, and 10% ethanol), or they were given intraperitoneal injections of solvent alone. The tumor volumes were calculated using the formula a×b^2×0.5, where a and b represent the larger and smaller diameters, respectively (Gu et al., 2000; Terashi et al., 2005). Mice were killed when the tumors grew to 1.5 cm in diameter. To evaluate the toxicity of treatment, blood samples were collected from the tail vein before treatment and 2 days after the last treatment, and serum alanine transaminase, aspartate transaminase, and creatinine levels were determined as described elsewhere (Gu et al., 2000; Terashi et al., 2005). Hematopoietic toxicity was monitored by counting red blood cells, white blood cells, and platelets (Gu et al., 2002; Terashi et al., 2005). The lung, heart, liver, intestine, spleen, and kidney were harvested after the mice were killed to test the toxic effects of both compounds on these organs. The histopathologic analysis was performed in the histology laboratory of the Department of Veterinary Medicine and Surgery at M. D. Anderson Cancer Center. […] The mean survivals for mice treated with solvent, Oncrasin-1, and Oncrasin-27 were 24, 32, and 34 days, respectively.
# [5] = tested on: SR; experiment: NCI in-vitro testing, SR (Leukemia); assay type: cell-based
# [6] = tested on: MDA-MB-435; experiment: NCI in-vitro testing, MDA-MB-435 (Breast Cancer)
# [7] = tested on: NCI/ADR-RES; experiment: NCI in-vitro testing, NCI/ADR-RES (Breast Cancer)
# [8] = tested on: NCI-H226; experiment: NCI in-vitro testing, NCI-H226 (Non-Small Cell Lung Cancer)
# [9] = tested on: SW-620; experiment: NCI in-vitro testing, SW-620 (Colon Cancer)
# [10] = tested on: RPMI-8226; experiment: NCI in-vitro testing, RPMI-8226 (Leukemia)
# [11] = tested on: SK-OV-3; experiment: NCI in-vitro testing, SK-OV-3 (Ovarian Cancer)
# [12] = tested on: SKOV3; experiment: Cell viability, SKOV3 ovary cancer cells; assay type: cell-based
# [13] = tested on: H2087; experiment: Cell viability, H2087 lung cancer cells; assay type: cell-based, human
smiles,measurement,setting,value
"O=Cc1cn(Cc2cccc(Cl)c2)c2ccccc12 [Oncrasin K027, 1-(3-chlorobenzyl)-1H-indole-3-carbaldehyde]",TGI,[1]; HCC-2998,2.04E−5 Molar
same,Percent Growth,"[1]; HCC-2998, Log10 Concentration −4.0 Molar",−97%
same,Percent Growth,"[1]; HCC-2998, Log10 Concentration −5.0 Molar",43%
same,Percent Growth,"[1]; HCC-2998, Log10 Concentration −6.0 Molar",62%
same,Percent Growth,"[1]; HCC-2998, Log10 Concentration −7.0 Molar",86%
same,Percent Growth,"[1]; HCC-2998, Log10 Concentration −8.0 Molar",85%
same,GI50,"[1]; Homo sapiens, HCC 2998",4.33 µM
same,CC50,"[1]; Homo sapiens, HCC 2998, read-out: LC50",46.2 µM
same,GI50,"[2]; Homo sapiens, UO-31",1.58 µM
same,CC50,"[2]; Homo sapiens, UO-31, read-out: LC50",> 100 µM
same,TGI,[2]; UO-31,1.55E−6 Molar
same,Percent Growth,"[2]; UO-31, Log10 Concentration −4.0 Molar",−42%
same,Percent Growth,"[2]; UO-31, Log10 Concentration −5.0 Molar",10%
same,Percent Growth,"[2]; UO-31, Log10 Concentration −6.0 Molar",50%
same,Percent Growth,"[2]; UO-31, Log10 Concentration −7.0 Molar",80%
same,Percent Growth,"[2]; UO-31, Log10 Concentration −8.0 Molar",90%
same,GI50,"[3]; Homo sapiens, M14",5.16 µM
same,CC50,"[3]; Homo sapiens, M14, read-out: LC50",55.9 µM
same,TGI,[3]; M14,2.03E−5 Molar
same,Percent Growth,"[3]; M14, Log10 Concentration −4.0 Molar",−79%
same,Percent Growth,"[3]; M14, Log10 Concentration −5.0 Molar",35%
same,Percent Growth,"[3]; M14, Log10 Concentration −6.0 Molar",87%
same,Percent Growth,"[3]; M14, Log10 Concentration −7.0 Molar",94%
same,Percent Growth,"[3]; M14, Log10 Concentration −8.0 Molar",95%
same,suppression of growth of tumor volume in comparison with solvent,[4],76.3%
same,mean survival,[4],34 days
same,mean tumor volume vs solvent-treated mice,[4],differed significantly
same,TGI,[5],4.26E−8 Molar
same,GI50,[5]; Homo sapiens,< 0.01 µM
same,Percent Growth,[5]; Log10 Concentration −4.0 Molar,−71%
same,Percent Growth,[5]; Log10 Concentration −5.0 Molar,−18%
same,Percent Growth,[5]; Log10 Concentration −6.0 Molar,−71%
same,Percent Growth,[5]; Log10 Concentration −7.0 Molar,−25%
same,Percent Growth,[5]; Log10 Concentration −8.0 Molar,43%
same,GI50,"[6]; Homo sapiens, MDA-MB-435",1.93 µM
same,CC50,"[6]; Homo sapiens, MDA-MB-435, read-out: LC50",> 100 µM
same,TGI,[6]; MDA-MB-435,5.47E−5 Molar
same,Percent Growth,"[6]; MDA-MB-435, Log10 Concentration −4.0 Molar",−29%
same,Percent Growth,"[6]; MDA-MB-435, Log10 Concentration −5.0 Molar",81%
same,Percent Growth,"[6]; MDA-MB-435, Log10 Concentration −6.0 Molar",96%
same,Percent Growth,"[6]; MDA-MB-435, Log10 Concentration −7.0 Molar",100%
same,Percent Growth,"[6]; MDA-MB-435, Log10 Concentration −8.0 Molar",102%
same,TGI,[7],3.32E−6 Molar
same,GI50,[7]; Homo sapiens,9.22 µM
same,CC50,"[7]; Homo sapiens, read-out: LC50",> 100 µM
same,Percent Growth,[7]; Log10 Concentration −4.0 Molar,−45%
same,Percent Growth,[7]; Log10 Concentration −5.0 Molar,48%
same,Percent Growth,[7]; Log10 Concentration −6.0 Molar,85%
same,Percent Growth,[7]; Log10 Concentration −7.0 Molar,94%
same,Percent Growth,[7]; Log10 Concentration −8.0 Molar,103%
same,GI50,"[8]; Homo sapiens, NCI-H226",< 0.01 µM
same,CC50,"[8]; Homo sapiens, NCI-H226, read-out: LC50",0.501 µM
same,TGI,[8]; NCI-H226,4.46E−8 Molar
same,Percent Growth,"[8]; NCI-H226, Log10 Concentration −4.0 Molar",−65%
same,Percent Growth,"[8]; NCI-H226, Log10 Concentration −5.0 Molar",−59%
same,Percent Growth,"[8]; NCI-H226, Log10 Concentration −6.0 Molar",−62%
same,Percent Growth,"[8]; NCI-H226, Log10 Concentration −7.0 Molar",−22%
same,Percent Growth,"[8]; NCI-H226, Log10 Concentration −8.0 Molar",40%
same,GI50,"[9]; Homo sapiens, SW-620",0.571 µM
same,CC50,"[9]; Homo sapiens, SW-620, read-out: LC50",> 100 µM
same,TGI,[9]; SW-620,1.80E−5 Molar
same,Percent Growth,"[9]; SW-620, Log10 Concentration −4.0 Molar",−46%
same,Percent Growth,"[9]; SW-620, Log10 Concentration −5.0 Molar",16%
same,Percent Growth,"[9]; SW-620, Log10 Concentration −6.0 Molar",39%
same,Percent Growth,"[9]; SW-620, Log10 Concentration −7.0 Molar",83%
same,Percent Growth,"[9]; SW-620, Log10 Concentration −8.0 Molar",84%
same,GI50,"[10]; Homo sapiens, RPMI-8226",0.372 µM
same,CC50,"[10]; Homo sapiens, RPMI-8226, read-out: LC50",> 100 µM
same,TGI,[10]; RPMI-8226,3.19E−6 Molar
same,Percent Growth,"[10]; RPMI-8226, Log10 Concentration −4.0 Molar",−35%
same,Percent Growth,"[10]; RPMI-8226, Log10 Concentration −5.0 Molar",−23%
same,Percent Growth,"[10]; RPMI-8226, Log10 Concentration −6.0 Molar",24%
same,Percent Growth,"[10]; RPMI-8226, Log10 Concentration −7.0 Molar",85%
same,Percent Growth,"[10]; RPMI-8226, Log10 Concentration −8.0 Molar",119%
same,GI50,"[11]; Homo sapiens, SK-OV-3",1.82 µM
same,CC50,"[11]; Homo sapiens, SK-OV-3, read-out: LC50",> 100 µM
same,TGI,[11]; SK-OV-3,2.95E−5 Molar
same,Percent Growth,"[11]; SK-OV-3, Log10 Concentration −4.0 Molar",−18%
same,Percent Growth,"[11]; SK-OV-3, Log10 Concentration −5.0 Molar",16%
same,Percent Growth,"[11]; SK-OV-3, Log10 Concentration −6.0 Molar",62%
same,Percent Growth,"[11]; SK-OV-3, Log10 Concentration −7.0 Molar",85%
same,Percent Growth,"[11]; SK-OV-3, Log10 Concentration −8.0 Molar",96%
"O=Cc1cn(Cc2ccc(Cl)cc2)c2ccccc12 [Oncrasin K001, 1H-Indole-3-carboxaldehyde, 1-[(4-chlorophenyl)methyl]-(9CI)]",suppression of growth of tumor volume in comparison with solvent,[4],75.4%
same,mean survival,[4],32 days
same,mean tumor volume vs solvent-treated mice,[4],differed significantly
same,IC50 (−LogM),[12],5.8 −LogM
same,IC50 (−LogM),"[13]; H2087, Lung",>4.5 −LogM
same,effect on H2087 cells,[13]; mutant N-Ras,minimal effect
